# Test results: patent publication US20260242391A1 (priority 2023, published 2026)
# pEC50, pIC50: −log10 of the molar value.
# What was measured:
# [1] = test system: HL-60; test: HL-60 differentiation potency; format: cell-based; settings: Homo sapiens
# [2] = in vitro; settings: human
# [3] = test system: HL-60; test: HL-60 differentiation potency; format: cell-based; settings: Homo sapiens; remark: listed apart in the source
pEC50 [1],pIC50 [2],pEC50 [3],Compound
7.03,,,"C[C@H]1[C@@H](Oc2ccc(C(=O)N[C@H]3C[C@@H](C(=O)O)C3)cc2)O[C@@H]2O[C@@]3(C)CC[C@H]4[C@H](C)CC[C@@H]1[C@@]24OO3 [Compound 233, (1R,3s)-3-(4-(((3R,5aS,6R,8aS, 9R,10S,12R, 12aR)-3,6,9-trimethyldeca-hydro-12H-3,12-epoxy[1,2]dioxepino[4,3-i]isochromen-10-yl)oxy)benzamido) cyclobutane-1-carboxylic acid]"
5.40,,,"C[C@H]1[C@@H](O[C@H]2CC[C@@H](C(=O)N[C@H]3CC[C@@H](C(=O)O)C3)CC2)O[C@@H]2O[C@@]3(C)CC[C@H]4[C@H](C)CC[C@@H]1[C@@]24OO3 [Compound 202, (1R,3S)-3-((1R,4R)-4-(((3R,5aS,6R,8aS, 9R,10S,12R, 12aR)-3,6,9-trimethyldeca-hydro-12H-3,12-epoxy[1,2]dioxepino[4,3-i]isochromen-10-yl)oxy)cyclo-hexane-1-carboxamido) cyclopentane-carboxylic acid]"
,6.35,6.59,"C[C@H]1[C@H](NCCS(=O)(=O)C(F)(F)F)O[C@@H]2O[C@@]3(C)CC[C@H]4[C@H](C)CC[C@@H]1[C@@]24OO3 [Compound 28, (3R,5aS,6R,8aS, 9R,10R,12R, 12aR)-3,6,9-trimethyl-N-(2-((trifluoromethyl)sulfonyl)ethyl) decahydro-12H-3,12-epoxy[1,2] dioxepino[4,3-i] isochromen-10-amine]"
,6.57,7.12,"C[C@H]1[C@@H](OC[C@H]2CC[C@@H](CO)CC2)O[C@@H]2O[C@@]3(C)CC[C@H]4[C@H](C)CC[C@@H]1[C@@]24OO3 [Compound 156, ((1R,4s)-4-((((3R,5aS,6R, 8aS,9R,10S,12R, 12aR)-3,6,9-trimethyldeca-hydro-12H-3,12-epoxy[1,2]dioxepino[4,3-i]isochromen-10-yl)oxy)methyl)cyclohexyl) methanol]"
,< 4.70,5.56,"C[C@H]1[C@H](OCCS(C)(=O)=O)O[C@@H]2O[C@@]3(C)CC[C@H]4[C@H](C)CC[C@@H]1[C@@]24OO3 [Compound 53, (3R,5aS,6R,8aS, 9R,10R,12R, 12aR)-3,6,9-trimethyl-10-(2-(methylsulfonyl)ethoxy)deca-hydro-12H-3,12-epoxy[1,2] dioxepino[4,3-i] isochromene]"
,< 4.70,5.16,"C[C@H]1[C@@H](OCC(=O)N2CCC(C(=O)O)CC2)O[C@@H]2O[C@@]3(C)CC[C@H]4[C@H](C)CC[C@@H]1[C@@]24OO3 [Compound 148, 1-(2-(((3R,5aS,6R,8aS, 9R,10S,12R, 12aR)-3,6,9-trimethyldeca-hydro-12H-3,12-epoxy[1,2]dioxepino[4,3-i]isochromen-10-yl)oxy)acetyl) piperidine-4-carboxylic acid]"
,< 4.70,6.62,"C[C@H]1[C@@H](Oc2ccc(F)c(CC(=O)O)c2)O[C@@H]2O[C@@]3(C)CC[C@H]4[C@H](C)CC[C@@H]1[C@@]24OO3 [Compound 27, 2-(2-fluoro-5-(((3R,5aS,6R, 8aS,9R,10S,12R, 12aR)-3,6,9-trimethyldeca-hydro-12H-3,12-epoxy[1,2]dioxepino[4,3-i]isochromen-10-yl)oxy)phenyl) acetic acid]"
,5.00,5.07,"C[C@H]1[C@H](N[C@@H](C)c2ccc(S(C)(=O)=O)cc2)O[C@@H]2O[C@@]3(C)CC[C@H]4[C@H](C)CC[C@@H]1[C@@]24OO3 [Compound 57, (3R,5aS,6R,8aS, 9R,10R,12R, 12aR)-3,6,9-trimethyl-N-((S)-1-(4-(methyl-sulfonyl)phenyl)ethyl)decahydro-12H-3,12-epoxy[1,2] dioxepino[4,3-i] isochromen-10-amine]"
